Results from US11390604B2 (Hoffmann-La Roche Inc., priority 2019, dated 2022).
Counter-ions that a name gives are not always drawn.

Each compound was assayed on Acinetobacter baumannii ATCC 17961 (assay: Antimicrobial susceptibility testing: 90% growth inhibitory concentration (IC90) determination). Settings: ATCC17961, Acinetobacter baumannii ATCC 17961, Iso-Sensitest broth, read-out: ATCC 17961 IC90.
Format: cell-based
Summary of the method: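 Growth was followed kinetically by OD600 at 20-min intervals for 16 h at 35±2 °C, with ~5×10^5 CFU/ml in Iso-Sensitest broth. Compounds were tested as twofold dilutions (e.g. 50–0.097 μM final). The concentration giving 90% inhibition of log-phase growth was reported.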
Compound `Cc1cc(NC(=O)c2ncc(-c3cn(CC(F)F)nc3C(F)(F)F)n2C)ccc1S(C)(=O)=NCCCN` (centres unmarked) [Example 353, N-[4-[N-(3-aminopropyl)-S-methyl-sulfonimidoyl]-3-methyl-phenyl]-5-[1-(2,2-difluoroethyl)-3-(trifluoromethyl)pyrazol-4-yl]-1-methyl-imidazole-2-carboxamide; formic acid] has an IC90 of 462 nM. Compound `CCn1cc(-c2cnc(C(=O)Nc3ccc(C(=O)NCCCCCCN)c(Br)c3)n2C)c(C(F)(F)F)n1` [Example 284, N-(4-((6-aminohexyl)carbamoyl)-3-bromophenyl)-5-(1-ethyl-3-(trifluoromethyl)-1H-pyrazol-4-yl)-1-methyl-1H-imidazole-2-carboxamide hydrochloride] has an IC90 of 350 nM. With `CCn1cc(-c2cnc(C(=O)Nc3ccc(C(=O)N4CCN(C(=O)CN)CC4)c(Cl)c3)n2C)c(C(F)(F)F)n1` [Example 330, N-[4-[4-(2-aminoacetyl)piperazine-1-carbonyl]-3-chlorophenyl]-5-[1-ethyl-3-(trifluoromethyl)pyrazol-4-yl]-1-methylimidazole-2-carboxamide;hydrochloride] the IC90 was 421 nM. For `Cn1c(-c2cn(C3CC3(F)F)nc2C(F)(F)F)cnc1C(=O)Nc1ccc(C(=O)N2C3CCC2CNC3)c(Cl)c1` (centres unmarked) [Example 268, N-(4-(3,8-diazabicyclo[3.2.1]octane-8-carbonyl)-3-chlorophenyl)-5-(1-(2,2-difluorocyclopropyl)-3-(trifluoromethyl)-1H-pyrazol-4-yl)-1-methyl-1H-imidazole-2-carboxamide formate], the IC90 was 332 nM. In the case of `Cn1c(-c2cn(CC3CCC3)nc2C(F)(F)F)cnc1C(=O)Nc1ccc(C(=O)N2CCN(C(=O)[C@H]3CC[C@@H](N)C3)CC2)c(Cl)c1` [Example 327, N-(4-(4-((1S,3R)-3-aminocyclopentane-1-carbonyl)piperazine-1-carbonyl)-3-chlorophenyl)-5-(1-(cyclobutylmethyl)-3-(trifluoromethyl)-1H-pyrazol-4-yl)-1-methyl-1H-imidazole-2-carboxamide hydrochloride], the IC90 is reported as 414 nM. With `Cn1c(-c2cn(CC#N)nc2C(F)(F)F)cnc1C(=O)Nc1ccc(C(=O)N2CCN(C(=O)NCC3(O)CNC3)CC2)c(Cl)c1` [Example 343, 4-[2-chloro-4-[[5-[1-(cyanomethyl)-3-(trifluoromethyl)pyrazol-4-yl]-1-methyl-imidazole-2-carbonyl]amino]benzoyl]-N-[(3-hydroxyazetidin-3-yl)methyl]piperazine-1-carboxamide; formic acid] the IC90 was 442 nM. Work on `Cn1c(-c2cn(CC3CC3)nc2C(F)(F)F)cnc1C(=O)Nc1ccc(C(=O)N2CCN(C(=O)C3[C@H]4CNC[C@@H]34)CC2)c(Cl)c1` (mixture of isomers) [Example 358, rac-N-(4-(4-((1R,5S)-3-azabicyclo[3.1.0]hexane-6-carbonyl)piperazine-1-carbonyl)-3-chlorophenyl)-5-(1-(cyclopropylmethyl)-3-(trifluoromethyl)-1H-pyrazol-4-yl)-1-methyl-1H-imidazole-2-carboxamide hydrochloride] yielded an IC90 of 467 nM. In the case of `Cn1c(-c2cn(CC(F)F)nc2C(F)(F)F)cnc1C(=O)Nc1ccc(C(=O)N2CCN(C(=O)NCC3(O)CNC3)CC2)c(Cl)c1` [Example 303, 4-[2-chloro-4-[[5-[1-(2,2-difluoroethyl)-3-(trifluoromethyl)pyrazol-4-yl]-1-methyl-imidazole-2-carbonyl]amino]benzoyl]-N-[(3-hydroxyazetidin-3-yl)methyl]piperazine-1-carboxamide; formic acid], the IC90 is reported as 371 nM. `C=CCn1cc(-c2cnc(C(=O)Nc3ccc(C(=O)NC4C5CN(C(=O)C6CCNCC6)CC54)c(Cl)c3)n2C)c(C(F)(F)F)n1` (centres unmarked) [Example 215, 5-(1-allyl-3-(trifluoromethyl)-1H-pyrazol-4-yl)-N-(3-chloro-4-((3-(piperidine-4-carbonyl)-3-azabicyclo[3.1.0]hexan-6-yl)carbamoyl)phenyl)-1-methyl-1H-imidazole-2-carboxamide formate] gave an IC90 of 243 nM. `Cn1c(-c2cn(C3CC3(F)F)nc2C(F)(F)F)cnc1C(=O)Nc1ccc(C(=O)NCCCCCN)c(Cl)c1` (centres unmarked) [Example 247, N-(4-((5-aminopentyl)carbamoyl)-3-chlorophenyl)-5-(1-(2,2-difluorocyclopropyl)-3-(trifluoromethyl)-1H-pyrazol-4-yl)-1-methyl-1H-imidazole-2-carboxamide] gave an IC90 of 295 nM. In the case of `Cn1c(-c2cn([C@H]3CC3(F)F)nc2C(F)(F)F)cnc1C(=O)Nc1ccc(C(=O)N[C@H]2[C@@H]3CN(C(=O)N[C@@H]4CNC[C@H]4O)C[C@@H]32)c(Cl)c1` [Example 182, (1S,5R)-6-[[2-chloro-4-[[5-[1-[(1S)-2,2-difluorocyclopropyl]-3-(trifluoromethyl)pyrazol-4-yl]-1-methyl-imidazole-2-carbonyl]amino]benzoyl]amino]-N-[(3R,4R)-4-hydroxypyrrolidin-3-yl]-3-azabicyclo[3.1.0]hexane-3-carboxamide], the IC90 is reported as 110 nM. `Cn1c(-c2cn(C3CCC3)nc2C(F)(F)F)cnc1C(=O)Nc1ccc(C(=O)N[C@H]2[C@@H]3CN(C(=O)C4CCNCC4)C[C@@H]32)c(Cl)c1` [Example 173, N-(3-chloro-4-(((1R,5S,6s)-3-(piperidine-4-carbonyl)-3-azabicyclo[3.1.0]hexan-6-yl)carbamoyl)phenyl)-5-(1-cyclobutyl-3-(trifluoromethyl)-1H-pyrazol-4-yl)-1-methyl-1H-imidazole-2-carboxamide formate] was tested, and the IC90 was 234 nM. `Cn1c(-c2cn(C3CC3)nc2C(F)(F)F)cnc1C(=O)Nc1ccc(C(=O)N2CCC(CCN)CC2)c(Cl)c1` [Example 191, N-(4-(4-(2-aminoethyl)piperidine-1-carbonyl)-3-chlorophenyl)-5-(1-cyclopropyl-3-(trifluoromethyl)-1H-pyrazol-4-yl)-1-methyl-1H-imidazole-2-carboxamide formate] was tested, and the IC90 was 176 nM. For `C#CCn1cc(-c2cnc(C(=O)Nc3ccc(C(=O)N4CCN(C(=O)N[C@H]5[C@@H]6CNC[C@@H]65)CC4)c(Cl)c3)n2C)c(C(F)(F)F)n1` [Example 87, 4-[2-chloro-4-[[1-methyl-5-[1-prop-2-ynyl-3-(trifluoromethyl)pyrazol-4-yl]imidazole-2-carbonyl]amino]benzoyl]-N-[rac-(1R,5S)-3-azabicyclo[3.1.0]hexan-6-yl]piperazine-1-carboxamide], the IC90 was 216 nM. `CCc1cc(NC(=O)c2ncc(-c3cn(CC#N)nc3C(F)(F)F)n2C)ccc1C(=O)N1CCN(C(=O)C2CNC2)CC1` [Example 131, N-[4-[4-(azetidine-3-carbonyl)piperazine-1-carbonyl]-3-ethylphenyl]-5-[1-(cyanomethyl)-3-(trifluoromethyl)pyrazol-4-yl]-1-methylimidazole-2-carboxamide;formic acid] gave an IC90 of 1700 nM. Compound `C=Cn1cc(-c2cnc(C(=O)Nc3ccc(C(=O)N4CCN(C(=O)NC5CNC5)CC4)c(Cl)c3)n2C)c(C(F)(F)F)n1` [Example 171, N-(azetidin-3-yl)-4-(2-chloro-4-(1-methyl-5-(3-(trifluoromethyl)-1-vinyl-1H-pyrazol-4-yl)-1H-imidazole-2-carboxamido)benzoyl)piperazine-1-carboxamide] has an IC90 of 207 nM. For `Cn1c(-c2cn(C3CC3)nc2C(F)(F)F)cnc1C(=O)Nc1ccc(C(=O)NCCCCCCN)c(Cl)c1` [Example 187, N-(4-((6-aminohexyl)carbamoyl)-3-chlorophenyl)-5-(1-cyclopropyl-3-(trifluoromethyl)-1H-pyrazol-4-yl)-1-methyl-1H-imidazole-2-carboxamide hydrochloride], the IC90 was 151 nM. For `Cn1c(-c2cn(CCF)nc2C(F)(F)F)cnc1C(=O)Nc1ccc(C(=O)N2CCN(C(=O)[C@H]3C[C@H](N)C3)CC2)c(Cl)c1` [Example 298, N-[4-[4-(3-aminocyclobutanecarbonyl)piper-azine-1-carbonyl]-3-chlorophenyl]-5-[1-(2-fluoroethyl)-3-(trifluoromethyl)pyrazol-4-yl]-1-methylimidazole-2-carboxamide;trihydrochloride], the IC90 was 365 nM. Work on `C#CCn1cc(-c2cnc(C(=O)Nc3ccc(C(=O)N(C)C)c(Cl)c3)n2C)c(C(F)(F)F)n1` [Example 42, N-(3-chloro-4-(dimethylcarbamoyl)phenyl)-1-methyl-5-(1-(prop-2-yn-1-yl)-3-(trifluoromethyl)-1H-pyrazol-4-yl)-1H-imidazole-2-carboxamide] yielded an IC90 of 241 nM. In the case of `Cn1c(-c2cn(CC#N)nc2C(F)(F)F)cnc1C(=O)Nc1ccc(C(=O)N[C@H]2C[C@@H](NC(=O)N3CCCC3CN)C2)c(Cl)c1` (some centres unmarked) [Example 361, N-[4-[[3-[[2-(aminomethyl)pyrrolidine-1-carbonyl]amino]cyclobutyl]car-bamoyl]-3-chloro-phenyl]-5-[1-(cyanomethyl)-3-(trifluoromethyl)pyrazol-4-yl]-1-methyl-imidazole-2-carboxamide; formic acid], the IC90 is reported as 479 nM. `Cn1cc(-c2cnc(C(=O)Nc3ccc(C(=O)N4CCN(C(=O)[C@@H]5C[C@@H](O)CN5)CC4)c(Cl)c3)n2C)c(C(F)(F)F)n1` [Example 55, N-[3-Chloro-4-[4-[(2S,4R)-4-hydroxypyrrolidine-2-carbonyl]piperazine-1-carbonyl]phenyl]-1-methyl-5-[1-methyl-3-(trifluoromethyl)pyrazol-4-yl]imidazole-2-carboxamide] was tested, and the IC90 was 1940 nM.

Same assay, conditions: Acinetobacter baumannii, ATCC17961, read-out: ATCC 17961 IC90, Acinetobacter baumannii ATCC 17961, Iso-Sensitest broth
With `Cn1c(-c2cn(CC3CC3(F)F)nc2C(F)(F)F)cnc1C(=O)Nc1ccc(C(=O)N2CCN(C(=O)N[C@H]3C[C@@H](N)C3)CC2)c(Cl)c1` (mixture of isomers) [Example 254, rac-N-((1s,3s)-3-aminocyclobutyl)-4-(2-chloro-4-(5-(1-((2,2-difluorocyclopropyl)methyl)-3-(trifluoromethyl)-1H-pyrazol-4-yl)-1-methyl-1H-imidazole-2-carboxamido)benzoyl)piperazine-1-carboxamide hydrochloride] the IC90 was 311 nM. In the case of `Cn1c(-c2cn(C3CC3(F)F)nc2C(F)(F)F)cnc1C(=O)Nc1ccc(C(=O)NCC2CCCN(C(=O)N[C@H]3CNC[C@@H]3O)C2)c(Cl)c1` (mixture of isomers) [Example 226, formate], the IC90 is reported as 259 nM.
